Columns and labels:
Test in all cases: relative viability (nuclei count vs DMSO), 5 days (fraction); higher = more cells survive
Everolimus + Vorinostat = compound: CO[C@H]1C[C@@H]2CC[C@@H](C)[C@@](O)(O2)C(=O)C(=O)N2CCCC[C@H]2C(=O)O[C@H]([C@H](C)C[C@@H]2CC[C@@H](OCCO)[C@H](OC)C2)CC(=O)[C@H](C)/C=C(\C)[C@@H](O)[C@@H](OC)C(=O)[C@H](C)C[C@H](C)/C=C/C=C/C=C/1C [Everolimus] + O=C(CCCCCCC(=O)Nc1ccccc1)NO [Vorinostat] (partner 1 µM)
Summary of the method: (§1)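 Five library-drug doses in √10 steps were combined with a fixed anchor-drug dose, or a single drug was given alone, by pin tool to lung cancer cell lines in 1536-well plates the day after seeding. Nuclei were stained and counted after 5 days. Relative viability is the nuclei count in treated wells over that in vehicle wells, taken as the median of duplicate plates.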

Everolimus + Pemetrexed = compound: CO[C@H]1C[C@@H]2CC[C@@H](C)[C@@](O)(O2)C(=O)C(=O)N2CCCC[C@H]2C(=O)O[C@H]([C@H](C)C[C@@H]2CC[C@@H](OCCO)[C@H](OC)C2)CC(=O)[C@H](C)/C=C(\C)[C@@H](O)[C@@H](OC)C(=O)[C@H](C)C[C@H](C)/C=C/C=C/C=C/1C [Everolimus] + Nc1nc2[nH]cc(CCc3ccc(C(=O)N[C@@H](CCC(=O)O)C(=O)O)cc3)c2c(=O)[nH]1 [Pemetrexed] (partner 0.2 µM)
Summary of the method: as §1

Everolimus + Navitoclax = compound: CO[C@H]1C[C@@H]2CC[C@@H](C)[C@@](O)(O2)C(=O)C(=O)N2CCCC[C@H]2C(=O)O[C@H]([C@H](C)C[C@@H]2CC[C@@H](OCCO)[C@H](OC)C2)CC(=O)[C@H](C)/C=C(\C)[C@@H](O)[C@@H](OC)C(=O)[C@H](C)C[C@H](C)/C=C/C=C/C=C/1C [Everolimus] + CC1(C)CCC(c2ccc(Cl)cc2)=C(CN2CCN(c3ccc(C(=O)NS(=O)(=O)c4ccc(N[C@H](CCN5CCOCC5)CSc5ccccc5)c(S(=O)(=O)C(F)(F)F)c4)cc3)CC2)C1 [Navitoclax] (partner 0.5 µM)
Summary of the method: as §1

Everolimus + Linsitinib = compound: CO[C@H]1C[C@@H]2CC[C@@H](C)[C@@](O)(O2)C(=O)C(=O)N2CCCC[C@H]2C(=O)O[C@H]([C@H](C)C[C@@H]2CC[C@@H](OCCO)[C@H](OC)C2)CC(=O)[C@H](C)/C=C(\C)[C@@H](O)[C@@H](OC)C(=O)[C@H](C)C[C@H](C)/C=C/C=C/C=C/1C [Everolimus] + C[C@]1(O)C[C@@H](c2nc(-c3ccc4ccc(-c5ccccc5)nc4c3)c3c(N)nccn32)C1 [Linsitinib] (partner 1 µM)
Summary of the method: as §1

Row | Cell Line | relative viability (Everolimus + Vorinostat; first compound 0.01 µM) | relative viability (Everolimus + Vorinostat; first compound 0.03162 µM) | relative viability (Everolimus + Vorinostat; first compound 0.1 µM) | relative viability (Everolimus + Vorinostat; first compound 0.3162 µM) | relative viability (Everolimus + Vorinostat; first compound 1 µM) | relative viability (Everolimus + Pemetrexed; first compound 0.01 µM) | relative viability (Everolimus + Pemetrexed; first compound 0.03162 µM) | relative viability (Everolimus + Pemetrexed; first compound 0.1 µM) | relative viability (Everolimus + Pemetrexed; first compound 0.3162 µM) | relative viability (Everolimus + Pemetrexed; first compound 1 µM) | relative viability (Everolimus + Navitoclax; first compound 0.01 µM) | relative viability (Everolimus + Navitoclax; first compound 0.03162 µM) | relative viability (Everolimus + Navitoclax; first compound 0.1 µM) | relative viability (Everolimus + Navitoclax; first compound 0.3162 µM) | relative viability (Everolimus + Navitoclax; first compound 1 µM) | relative viability (Everolimus + Linsitinib; first compound 0.01 µM) | relative viability (Everolimus + Linsitinib; first compound 0.03162 µM) | relative viability (Everolimus + Linsitinib; first compound 0.1 µM) | relative viability (Everolimus + Linsitinib; first compound 0.3162 µM) | relative viability (Everolimus + Linsitinib; first compound 1 µM)
1 | NCI-H1650 | 0.396 | 0.388 | 0.29 | 0.365 | 0.383 | 0.451 | 0.359 | 0.325 | 0.442 | 0.414 | 1.2 | 0.824 | 1.06 | 1.2 | 0.876 |  |  |  |  | 
2 | NCI-H1703 |  |  |  |  |  |  |  |  |  |  | 0.443 | 0.453 | 0.553 | 0.457 | 0.671 | 0.293 | 0.281 | 0.447 | 0.488 | 0.463
3 | NCI-H1792 |  |  |  |  |  | 0.335 | 0.245 | 0.318 | 0.315 | 0.183 | 0.316 | 0.251 | 0.29 | 0.244 | 0.362 | 0.449 | 0.38 | 0.202 | 0.148 | 0.159
4 | NCI-H2170 | 0.326 | 0.314 | 0.27 | 0.309 | 0.338 | 0.259 | 0.26 | 0.248 | 0.271 | 0.257 | 0.235 | 0.22 | 0.202 | 0.184 | 0.236 |  |  |  |  | 
5 | NCI-H2342 | 0.559 | 0.438 | 0.524 | 0.56 | 0.633 | 0.559 | 0.478 | 0.446 | 0.584 | 0.477 |  |  |  |  |  |  |  |  |  | 
6 | SW 900 | 0.41 | 0.301 | 0.339 | 0.37 | 0.266 | 0.391 | 0.432 | 0.482 | 0.431 | 0.421 |  |  |  |  |  |  |  |  |  | 

Reference: the supplement of paper PMC10307832
